Experimental data as given in PMC11862611 (RSC Medicinal Chemistry, 2025).
pEC50: −log10 of the molar value.

What was measured:
[1] = test system: panel of neurotransmitter receptors; assay: radioligand displacement assay, whole panel; assay type: binding, human
Description: (§1) 4.2.3.6. Radioligand Binding Assay (Supplemental Figure S3)
(§2) These assays were run by Eurofins under contract to LifeArc FR095-0011887. A representative protocol describing the human histamine H2 receptor (antagonist radioligand) assay is shown below.12 Cell membrane homogenates (24 µg protein) are incubated for 120 min at 22°C with 0.075 nM [125I]APT in the absence or presence of the test compound in a buffer containing 50 mM Na2HPO4/KH2PO4 (pH […]
(§3) 7.4) and 0.05% BSA. […] Following

[2] = target: T1, H1 (h) (antagonist radioligand) (Homo sapiens, UniProt P35367); assay: radioligand displacement assay, H1; assay type: binding
T1 construct: purchased Eurofins (contract assay); host or cells: cell membrane homogenates
Description: as §1, §2, §3

[3] = test system: L. amazonensis GFP promastigotes; assay: mouse model of L. amazonensis infection (ear, IL dosing); assay type: in vivo, BALB/c mice; conditions: 1.2 mg kg^−1 IL twice a week for 4 weeks
Description: Consequently, we used IL dosing for this experiment. To enable direct comparison with CF, the same treatment regimen (dose of 1.2 mg kg^−1via IL injection twice a week for 4 weeks starting on DPI) was used for both compounds.
A Weight variation of mice during 28 days of treatment. B Progression of lesion thickness over 28 day treatment period. C Representative photographs of the infected ear for each group taken after completion of treatment, D parasite burden was evaluated by LDA on 36 days post infection. […]
In vivo assays were conducted as previously reported 1. Two month old BALB/c female mice, weighing 20 - 25 g and of approximately the same age were used for the study. For infection of mice, stationary phase GFP L. amazonensis promastigotes were collected, washed and suspended in sterile PBS. A volume of 10 μl of sterile PBS containing 2 x 10^6 parasites was injected into the right ear. […]
Infected ear thicknesses were measured once or twice a week with a caliper gauge, and the lesion sizes were expressed as the difference between the thickness of infected and non-infected ear. On day 41 animals were sacrificed and the fluorescence measured (485 - 528 nm) and parasite load quantified using a limiting dilution assay (LDA).
Data on lesion progression were analysed for statistical significance by using the Dunnett test as part of the one-way ANOVA (GraphPad Prism 8 software). […]

[4] = target: T2, M1 (h) (antagonist radioligand) (Homo sapiens, UniProt P11229); assay: radioligand displacement assay, M1; assay type: binding
T2 construct: purchased Eurofins (contract assay); host or cells: cell membrane homogenates
T2 sequence (P11229 1-460): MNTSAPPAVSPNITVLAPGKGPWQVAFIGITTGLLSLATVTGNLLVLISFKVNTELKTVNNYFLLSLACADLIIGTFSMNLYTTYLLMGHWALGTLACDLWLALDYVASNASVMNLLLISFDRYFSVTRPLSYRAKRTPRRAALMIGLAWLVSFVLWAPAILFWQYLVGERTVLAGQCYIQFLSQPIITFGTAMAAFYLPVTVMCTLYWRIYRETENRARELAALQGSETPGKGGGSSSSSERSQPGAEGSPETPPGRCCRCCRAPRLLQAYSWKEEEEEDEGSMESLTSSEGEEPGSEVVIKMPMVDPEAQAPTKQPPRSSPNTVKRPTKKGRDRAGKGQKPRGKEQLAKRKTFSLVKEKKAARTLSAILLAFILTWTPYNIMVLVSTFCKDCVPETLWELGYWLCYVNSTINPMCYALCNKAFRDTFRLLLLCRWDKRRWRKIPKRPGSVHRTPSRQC
Description: as §1, §2, §3

[5] = target: T3, M5 (h) (antagonist radioligand) (Homo sapiens, UniProt P08912); assay: radioligand displacement assay, M5; assay type: binding
T3 construct: purchased Eurofins (contract assay); host or cells: cell membrane homogenates
T3 sequence (P08912 1-532): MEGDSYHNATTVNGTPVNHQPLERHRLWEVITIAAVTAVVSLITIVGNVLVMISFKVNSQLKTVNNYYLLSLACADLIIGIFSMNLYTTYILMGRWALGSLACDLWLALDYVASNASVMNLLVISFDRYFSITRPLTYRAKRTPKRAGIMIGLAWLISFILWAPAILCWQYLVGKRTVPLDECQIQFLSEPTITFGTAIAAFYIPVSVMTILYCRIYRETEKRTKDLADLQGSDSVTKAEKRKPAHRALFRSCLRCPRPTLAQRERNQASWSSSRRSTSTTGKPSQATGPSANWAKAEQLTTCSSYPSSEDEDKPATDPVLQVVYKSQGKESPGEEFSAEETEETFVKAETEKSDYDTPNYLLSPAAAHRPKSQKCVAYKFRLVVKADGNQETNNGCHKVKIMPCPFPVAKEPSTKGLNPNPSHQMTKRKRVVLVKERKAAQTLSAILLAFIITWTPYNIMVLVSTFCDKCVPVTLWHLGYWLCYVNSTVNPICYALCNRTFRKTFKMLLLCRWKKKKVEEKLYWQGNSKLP
Description: as §1, §2, §3

[6] = test system: L. major PX promastigotes; assay: on-target growth inhibition, add-back cell line (PX); assay type: cell-based, Leishmania major
Description: L. major promastigotes (FV1) WT, PX and Δ LCB2 in Schneider’s insect medium (100 μL at 1 × 106 mL−1) were incubated in 96-well plates with compounds in triplicate (amphotericin B and cycloheximide were used as positive controls, and untreated parasites with 1% DMSO as a negative control) at 26 °C for 48 h.

[7] = target: T4, 5-HTB2 receptors (Homo sapiens, UniProt P41595); assay: radioligand displacement assay, 5-HT2B; assay type: binding
T4 construct: purchased Eurofins (contract assay); host or cells: cell membrane homogenates
Description: as §1, §2, §3

[8] = test system: L. major ΔLCB2 promastigotes; assay type: cell-based, Leishmania major; conditions: EC50 WT versus ΔLCB2 L. major promastigotes
[9] = test system: L. amazonensis promastigotes; assay: anti-promastigote assay, L. amazonensis (resazurin); assay type: cell-based; conditions: Leishmania amazonensis; promastigote parasites (Table 1); read-out: L.amaz EC50
Description: 4.2.3.1. Anti-promastigote assays […]
Protocol 1: L. amazonensis promastigotes in Medium 199 (100 μL at 5 × 105 mL−1) were incubated in 96-well plates with compounds in triplicate (amphotericin B was used as a positive control, and untreated parasites with DMSO as a negative control) at 26 °C for 72 h. Resazurin Solution (10 μL) was then added and the plate incubated at 26 °C for 4 h prior to measurement using a fluorescence plate reader (555 - 585 nm). EC50 values were calculated using sigmoidal regression analysis (GraphPad Prism).
Protocol 2: Same procedure as above with the modification of a 48 h incubation time as opposed to 72 h and Leishmania amazonensis (MHOM/Br/75/JOSEFA) in Schneider’s insect medium in the place of Leishmania amazonensis (MHOM/Br/75/JOSEFA) in Medium 199. […]
well-1 in a 24-well plate with round cover slips and incubated for 24 h at 37 °C and 5% CO2. […]

T1 sequence (P35367 whole entry): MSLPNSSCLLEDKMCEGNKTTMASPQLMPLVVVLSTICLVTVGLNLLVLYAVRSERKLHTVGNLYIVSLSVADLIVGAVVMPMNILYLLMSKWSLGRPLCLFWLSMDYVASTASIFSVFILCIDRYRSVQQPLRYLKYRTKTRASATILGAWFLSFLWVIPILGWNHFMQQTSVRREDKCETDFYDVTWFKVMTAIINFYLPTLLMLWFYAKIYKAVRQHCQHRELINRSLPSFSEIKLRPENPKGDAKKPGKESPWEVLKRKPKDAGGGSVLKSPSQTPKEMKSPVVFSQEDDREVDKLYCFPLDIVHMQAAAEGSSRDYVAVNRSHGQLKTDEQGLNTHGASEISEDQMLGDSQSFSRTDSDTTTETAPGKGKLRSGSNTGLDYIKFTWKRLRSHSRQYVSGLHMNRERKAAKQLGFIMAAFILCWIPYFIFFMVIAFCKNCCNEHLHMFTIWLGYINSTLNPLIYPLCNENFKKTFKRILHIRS
T4 sequence (P41595 whole entry): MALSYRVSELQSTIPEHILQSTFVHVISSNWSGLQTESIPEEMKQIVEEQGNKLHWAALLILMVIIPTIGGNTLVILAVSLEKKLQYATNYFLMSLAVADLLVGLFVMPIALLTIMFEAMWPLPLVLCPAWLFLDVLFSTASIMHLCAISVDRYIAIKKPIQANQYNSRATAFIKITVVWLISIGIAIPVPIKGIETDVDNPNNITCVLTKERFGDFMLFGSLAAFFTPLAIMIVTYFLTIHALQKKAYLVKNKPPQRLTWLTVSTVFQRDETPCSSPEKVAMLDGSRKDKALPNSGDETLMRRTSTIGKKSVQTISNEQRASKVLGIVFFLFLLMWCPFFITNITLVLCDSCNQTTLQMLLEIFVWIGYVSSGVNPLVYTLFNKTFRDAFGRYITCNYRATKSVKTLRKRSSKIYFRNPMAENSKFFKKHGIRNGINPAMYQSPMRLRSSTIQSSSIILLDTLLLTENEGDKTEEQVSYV

C[C@H]1CCCN1CCCO[C@H](c1ccccc1)c1ccc(Cl)cc1 [38l]
binding profile across receptor panel [1]: greater selectivity | effective binding, radioligand displacement, H1 [2]: > 40% | lesion growth trends ([3]; 35 days post-infection): similar | parasitaemia (parasite burden by LDA) versus untreated group ([3]; LDA 36 days post infection): statistically significant reduction | effective binding, radioligand displacement, M1 [4]: > 40% | affinity, radioligand displacement, M5 [5]: lower affinity | sensitivity in the add-back cell line (PX) [6]: Sensitivity was restored | affinity, radioligand displacement, 5-HTB2 [7]: lower affinity | times more active against WT than mutant ΔLCB2 promastigotes [8]: approximately 3 times | pEC50 [9]: 7.39
